From patent US11999718B2, “Pyrazole derivatives” (Aptabio Therapeutics Inc., priority 2021, dated 2024)

system: HL-60 cells differentiated into neutrophil cells; assay: ROS production induced by PMA in HL-60 cells differentiated into neutrophil cells; format: cell-based; settings: Homo sapiens, 0.5 h; differentiated HL-60 cells, compounds 0.5 uM (0.5 mM in the source) for 30 minutes, 200 nM PMA, L-012 luminescence
Excerpt: In order to confirm the effect of the compounds of Synthetic examples on ROS production from fibroblasts and specific substrate cells, ROS production was induced by stimulation of PMA (phorbol 12-myristate 13-acetate), TGF-β1, palmitate or high concentration-glucose, or the like, in HL-60 cells differentiated into neutrophil cells by DMSO treatment, NHLF (normal human lung fibroblast, Lonza), LX-2 (human hepatic stellate cells, Sigma), ARPE19 (human retinal pigment epithelial cell, ATCC), and KEL-FIB (Keloid fibroblast, ATCC) cells, and under this condition, the inhibitory effect of ROS production of the compounds of Synthetic Examples was observed.
HL-60 cells (human leukemia cells, ATCC) were suspended in a medium containing 1.25% DMSO (RPMI+10% FBS) and cultured under the condition of 5% CO2, 37° C. for 6 days, thereby inducing differentiation into neutrophil cells. […] Then, to each well comprising the cells and drug, 200 nM PMA was treated to induce ROS production, and such ROS production was measured by observing the luminescence level of each well using 100 μM L-012.

Q: With `Oc1c2c(nn1-c1ccccn1)CCC(NCCc1ccccc1)C2` (stereo not drawn) [Compound 93, 5-(Penethylamino)-2-(pyridin-2-yl)-4,5,6,7-tetrahydro-2H-indazol-3-ol] as the compound, how does the inhibition at 0.5 µM read?
A: Its inhibition at 0.5 µM is 30 to 50%.

Q: Which inhibition at 0.5 µM does the source give for `COc1ccc(CN(C)C2CCc3nn(-c4ccccn4)c(O)c3C2)cc1` (stereo not drawn) [Compound 28, 5-[(4-Methoxybenzyl)methylamino]-2-(pyridin-2-yl)-4,5,6,7-tetrahydro-2H-indazol-3-ol] here?
A: Its inhibition at 0.5 µM is 50 to 70%.

Q: `CN1CCN(C2CCc3nn(-c4ncccn4)c(O)c3C2)CC1` (stereo not drawn) [Compound 108, 5-(4-Methylpiperazin-1-yl)-2-(pyrimidin-2-yl)-4,5,6,7-tetrahydro-2H-indazol-3-ol] was tested. Which inhibition at 0.5 µM did it give?
A: Its inhibition at 0.5 µM is > 70%.

Q: With `Oc1c2c(nn1-c1ccccn1)CCC(N1CCN(Cc3ccc4ncccc4c3)CC1)C2` (stereo not drawn) [Compound 90, 2-(Pyridin-2-yl)-5-(4-(quinolin-6-ylmethyl)piperazin-1-yl)-4,5,6,7-tetrahydro-2H-indazol-3-ol] as the compound, how does the inhibition at 0.5 µM read?
A: Its inhibition at 0.5 µM is > 70%.

Q: With `Oc1c2c(nn1-c1ccccn1)CCC(N1CCCC1)C2` (stereo not drawn) [Compound 96, 2-(Pyridin-2-yl)-5-(pyrrolidin-1-yl)-4,5,6,7-tetrahydro-2H-indazol-3-ol] as the compound, how does the inhibition at 0.5 µM read?
A: Its inhibition at 0.5 µM is 50 to 70%.

Q: `CN(Cc1cccc(Cl)c1)C1CCc2nn(-c3ccccn3)c(O)c2C1` (stereo not drawn) [Compound 7, 5-[(3-Chlorobenzyl)methylamino]-2-(pyridin-2-yl)-4,5,6,7-tetrahydro-2H-indazol-3-ol] was tested. Which inhibition at 0.5 µM did it give?
A: The inhibition at 0.5 µM was > 70%.

Q: With `Oc1c2c(nn1-c1ccccn1)CCC(N1CCN(CC3CCCCC3)CC1)C2` (stereo not drawn) [Compound 106, 5-(4-(Cyclohexylmethyl)piperazin-1-yl)-2-(pyridin-2-yl)-4,5,6,7-tetrahydro-2H-indazol-3-ol] as the compound, how does the inhibition at 0.5 µM read?
A: Its inhibition at 0.5 µM is > 70%.

Q: How did the inhibition at 0.5 µM turn out when `CN1CCN(c2cc(CN(C)C3CCc4nn(-c5ccccn5)c(O)c4C3)ncn2)CC1` (stereo not drawn) [Compound 34, 5-{methyl-[6-(4-methyl-piperazin-1-yl)-pyrimidin-4-ylmethyl]-amino}-2-pyridin-2-yl-4,5,6,7-tetrahydro-2H-indazol-3-ol] was run?
A: Its inhibition at 0.5 µM is 30 to 50%.

Q: Which inhibition at 0.5 µM does the source give for `Oc1c2c(nn1-c1ccccn1)CCC(N1CCN(CCCc3ccccc3)CC1)C2` (stereo not drawn) [Compound 107, 5-(4-(3-Phenylpropyl)piperazin-1-yl)-2-(pyridin-2-yl)-4,5,6,7-tetrahydro-2H-indazol-3-ol] here?
A: Its inhibition at 0.5 µM is > 70%.

Q: With `Cc1cccc(CN(C)C2CCc3nn(-c4ccccn4)c(O)c3C2)c1` (stereo not drawn) [Compound 9, 5-[Methyl-(3-methylbenzyl)amino]-2-(pyridin-2-yl)-4,5,6,7-tetrahydro-2H-indazol-3-ol] as the compound, how does the inhibition at 0.5 µM read?
A: The inhibition at 0.5 µM was 50 to 70%.

Q: Which inhibition at 0.5 µM does the source give for `CN(Cc1ccccc1Cl)C1CCc2nn(-c3ccccn3)c(O)c2C1` (stereo not drawn) [Compound 6, 5-[(2-Chlorobenzyl)methylamino]-2-(pyridin-2-yl)-4,5,6,7-tetrahydro-2H-indazol-3-ol] here?
A: The inhibition at 0.5 µM was > 70%.

Q: Which inhibition at 0.5 µM does the source give for `CN(Cc1cccc(F)c1)C1CCc2nn(-c3ccccn3)c(O)c2C1` (stereo not drawn) [Compound 27, 5-[(3-Fluorobenzyl)methylamino]-2-(pyridin-2-yl)-4,5,6,7-tetrahydro-2H-indazol-3-ol] here?
A: Its inhibition at 0.5 µM is 30 to 50%.

Q: For `Oc1c2c(nn1-c1ccccn1)CCC(N1CCN(Cc3ccccc3)CC1)C2` (stereo not drawn) [Compound 105, 5-(4-Benzylpiperazin-1-yl)-2-(pyridin-2-yl)-4,5,6,7-tetrahydro-2H-indazol-3-ol], which inhibition at 0.5 µM is on record?
A: The inhibition at 0.5 µM was > 70%.

Q: How did the inhibition at 0.5 µM turn out when `Oc1c2c(nn1-c1ccccn1)CCC(N1CCOCC1)C2` (stereo not drawn) [Compound 15, 5-Morpholino-4-yl-2-(pyridin-2-yl)-4,5,6,7-tetrahydro-2H-indazol-3-ol] was run?
A: The inhibition at 0.5 µM was > 70%.

Q: With `Cc1ccc(CN(C)C2CCc3nn(-c4ccccn4)c(O)c3C2)cc1` (stereo not drawn) [Compound 24, 5-[Methyl-(4-methylbenzyl)amino]-2-(pyridin-2-yl)-4,5,6,7-tetrahydro-2H-indazol-3-ol] as the compound, how does the inhibition at 0.5 µM read?
A: Its inhibition at 0.5 µM is 30 to 50%.

Q: How did the inhibition at 0.5 µM turn out when `CCN1CCN(C2CCc3nn(-c4ccccn4)c(O)c3C2)CC1` (stereo not drawn) [Compound 91, 5-(4-Ethylpiperazin-1-yl)-2-(pyridin-2-yl)-4,5,6,7-tetrahydro-2H-indazol-3-ol] was run?
A: Its inhibition at 0.5 µM is 50 to 70%.

Q: For `CCN(Cc1ccccc1)C1CCc2nn(-c3ccccn3)c(O)c2C1` (stereo not drawn) [Compound 20, 5-(Benzylethylamino)-2-(pyridin-2-yl)-4,5,6,7-tetrahydro-2H-indazol-3-ol], which inhibition at 0.5 µM is on record?
A: The inhibition at 0.5 µM was 30 to 50%.

Q: With `CN1CCN(C2CCc3nn(-c4ccc(C#N)cc4)c(O)c3C2)CC1` (stereo not drawn) [Compound 103, 4-(3-Hydroxy-5-(4-methylpiperazin-1-yl)-4,5,6,7-tetrahydro-2H-indazol-2-yl)benzonitrile] as the compound, how does the inhibition at 0.5 µM read?
A: Its inhibition at 0.5 µM is > 70%.

Q: Which inhibition at 0.5 µM does the source give for `CC#CC(=O)N1CCN(C2CCc3nn(-c4ccccn4)c(O)c3C2)CC1` (stereo not drawn) [Compound 89] here?
A: The inhibition at 0.5 µM was > 70%.

Q: Which inhibition at 0.5 µM does the source give for `CC(=O)c1ccc(N2CCN(C3CCc4nn(-c5ccccn5)c(O)c4C3)CC2)cc1` (stereo not drawn) [Compound 130, 1-(4-(4-(3-Hydroxy-2-(pyridin-2-yl)-4,5,6,7-tetrahydro-2H-indazol-5-yl)piperazin-1-yl)phenyl)ethan-1-one] here?
A: Its inhibition at 0.5 µM is > 70%.

Q: With `CCCN1CCN(C2CCc3nn(-c4ccccn4)c(O)c3C2)CC1` (stereo not drawn) [Compound 100, 5-(4-Propylpiperazin-1-yl)-2-(pyridin-2-yl)-4,5,6,7-tetrahydro-2H-indazol-3-ol] as the compound, how does the inhibition at 0.5 µM read?
A: The inhibition at 0.5 µM was 50 to 70%.

Q: With `Oc1c2c(nn1-c1ccccn1)CCC(N(Cc1ccccc1)C1CC1)C2` (stereo not drawn) [Compound 2, 5-(Benzylcyclopropylamino)-2-(pyridin-2-yl)-4,5,6,7-tetrahydro-2H-indazol-3-ol] as the compound, how does the inhibition at 0.5 µM read?
A: The inhibition at 0.5 µM was > 70%.

Q: For `CN(Cc1cccc(C(F)(F)F)c1)C1CCc2nn(-c3ccccn3)c(O)c2C1` (stereo not drawn) [Compound 10, 5-[Methyl-(3-trifluoromethylbenzyl)-amino]-2-pyridin-2-yl-4,5,6,7-tetrahydro-2H-indazol-3-ol], which inhibition at 0.5 µM is on record?
A: Its inhibition at 0.5 µM is 30 to 50%.

Q: With `CN1CCN(C2CCc3nn(-c4ncccc4F)c(O)c3C2)CC1` (stereo not drawn) [Compound 86, 2-(3-Fluoropyridin-2-yl)-5-(4-methylpiperazin-1-yl)-4,5,6,7-tetrahydro-2H-indazol-3-ol] as the compound, how does the inhibition at 0.5 µM read?
A: Its inhibition at 0.5 µM is 30 to 50%.

Q: `CN1CCN(C2CCc3nn(-c4ccc(F)cc4)c(O)c3C2)CC1` (stereo not drawn) [Compound 102, 2-(4-Fluorophenyl)-5-(4-methylpiperazin-1-yl)-4,5,6,7-tetrahydro-2H-indazol-3-ol] was tested. Which inhibition at 0.5 µM did it give?
A: Its inhibition at 0.5 µM is > 70%.

Q: For `Cc1ccc(N2CCN(C3CCc4nn(-c5ccccn5)c(O)c4C3)CC2)cc1` (stereo not drawn) [Compound 126, 2-(Pyridin-2-yl)-5-(4-(p-tolyl)piperazin-1-yl)-4,5,6,7-tetrahydro-2H-indazol-3-ol], which inhibition at 0.5 µM is on record?
A: The inhibition at 0.5 µM was > 70%.

Q: With `CN(Cc1cccc(C#N)c1)C1CCc2nn(-c3ccccn3)c(O)c2C1` (stereo not drawn) [Compound 25, 3-{[(3-Hydroxy-2-(pyridin-2-yl)-4,5,6,7-tetrahydro-2H-indazol-5-yl)methylamino]methyl}benzonitrile] as the compound, how does the inhibition at 0.5 µM read?
A: The inhibition at 0.5 µM was 30 to 50%.

Q: `Oc1c2c(nn1-c1ccccn1)CCC(N1CCN(Cc3ccccn3)CC1)C2` (stereo not drawn) [Compound 87, 2-(Pyridin-2-yl)-5-(4-(pyridin-2-ylmethyl)piperazin-1-yl)-4,5,6,7-tetrahydro-2H-indazol-3-ol] was tested. Which inhibition at 0.5 µM did it give?
A: The inhibition at 0.5 µM was 50 to 70%.

Q: Which inhibition at 0.5 µM does the source give for `CN1CCN(c2cccc3nc(CN(C)C4CCc5nn(-c6ccccn6)c(O)c5C4)cn23)CC1` (stereo not drawn) [Compound 37, 5-{Methyl[5-(4-methylpiperazin-1-yl)imidazo[1,2-a]pyridin-2-yl]methylamino}-2-(pyridin-2-yl)-4,5,6,7-tetrahydro-2H-indazol-3-ol] here?
A: The inhibition at 0.5 µM was 30 to 50%.

Q: Which inhibition at 0.5 µM does the source give for `CN(C)c1ccc(CN(C)C2CCc3nn(-c4ccccn4)c(O)c3C2)cc1` (stereo not drawn) [Compound 70, 5-[(4-Dimethylamino)benzylmethylamino]-2-(pyridin-2-yl)-4,5,6,7-tetrahydro-2H-indazol-3-ol] here?
A: The inhibition at 0.5 µM was 30 to 50%.
